Test results published in ChEMBL document CHEMBL1156482, “Molecular mechanism of action of monocyclam versus bicyclam non-peptide antagonists in the CXCR4 chemokine receptor” (J Biol Chem, 2007).

Key:
[1] = tested on: C-X-C chemokine receptor type 4 (Homo sapiens), P61073 [H203A]; test: (§1) Antagonist activity at human CXCR4 H203A mutant expressed in COS7 cells coexpressing G protein Gqi4myr assessed as inhibition of CXCL12-induced phosphatidylinositol turnover; format: functional, cell-based; conditions: COS-7
[2] = target: C-X-C chemokine receptor type 4 (Homo sapiens, UniProt P61073, H203A); test: as §1; format: functional, cell-based, COS-7
[3] = target: C-X-C chemokine receptor type 4 (Homo sapiens, UniProt P61073, E288A); test: (§2) Antagonist activity at human CXCR4 E288A mutant expressed in COS7 cells coexpressing G protein Gqi4myr assessed as inhibition of CXCL12-induced phosphatidylinositol turnover; format: functional, cell-based, COS-7
[4] = tested on: C-X-C chemokine receptor type 4 (Homo sapiens), P61073 [E288A]; test: as §2; format: functional, cell-based; conditions: COS-7
[5] = target: C-X-C chemokine receptor type 4 (Homo sapiens, UniProt P61073, H113A); test: (§3) Antagonist activity at human CXCR4 H113A mutant expressed in COS7 cells coexpressing G protein Gqi4myr assessed as inhibition of CXCL12-induced phosphatidylinositol turnover; format: functional, cell-based, COS-7
[6] = tested on: C-X-C chemokine receptor type 4 (Homo sapiens), P61073 [H113A]; test: as §3; format: functional, cell-based; conditions: COS-7
[7] = target: C-X-C chemokine receptor type 4 (Homo sapiens, UniProt P61073); test: Antagonist activity at human wild type CXCR4 expressed in COS7 cells coexpressing G protein Gqi4myr assessed as inhibition of CXCL12-induced phosphatidylinositol turnover; format: functional, cell-based, COS-7; conditions: for logIC50: COS-7
[8] = target: C-X-C chemokine receptor type 4 (Homo sapiens, UniProt P61073, T287A); test: (§4) Antagonist activity at human CXCR4 T287A mutant expressed in COS7 cells coexpressing G protein Gqi4myr assessed as inhibition of CXCL12-induced phosphatidylinositol turnover; format: functional, cell-based, COS-7
[9] = tested on: C-X-C chemokine receptor type 4 (Homo sapiens), P61073 [T287A]; test: as §4; format: functional, cell-based; conditions: COS-7
[10] = target: C-X-C chemokine receptor type 4 (Homo sapiens, UniProt P61073, F172A); test: (§5) Antagonist activity at human CXCR4 F172A mutant expressed in COS7 cells coexpressing G protein Gqi4myr assessed as inhibition of CXCL12-induced phosphatidylinositol turnover; format: functional, cell-based, COS-7
[11] = tested on: C-X-C chemokine receptor type 4 (Homo sapiens), P61073 [F172A]; test: as §5; format: functional, cell-based; conditions: COS-7
[12] = target: C-X-C chemokine receptor type 4 (Homo sapiens, UniProt P61073, Q200A); test: (§6) Antagonist activity at human CXCR4 Q200A mutant expressed in COS7 cells coexpressing G protein Gqi4myr assessed as inhibition of CXCL12-induced phosphatidylinositol turnover; format: functional, cell-based, COS-7
[13] = tested on: C-X-C chemokine receptor type 4 (Homo sapiens), P61073 [Q200A]; test: as §6; format: functional, cell-based; conditions: COS-7
[14] = tested on: C-X-C chemokine receptor type 4 (Homo sapiens), P61073 [Y255A]; test: (§7) Antagonist activity at human CXCR4 Y255A mutant expressed in COS7 cells coexpressing G protein Gqi4myr assessed as inhibition of CXCL12-induced phosphatidylinositol turnover; format: functional, cell-based; conditions: COS-7
[15] = target: C-X-C chemokine receptor type 4 (Homo sapiens, UniProt P61073, Y255A); test: as §7; format: functional, cell-based, COS-7
[16] = target: C-X-C chemokine receptor type 4 (Homo sapiens, UniProt P61073, D171N); test: (§8) Antagonist activity at human CXCR4 D171N mutant expressed in COS7 cells coexpressing G protein Gqi4myr assessed as inhibition of CXCL12-induced phosphatidylinositol turnover; format: functional, cell-based, COS-7
[17] = tested on: C-X-C chemokine receptor type 4 (Homo sapiens), P61073 [D171N]; test: as §8; format: functional, cell-based; conditions: COS-7
[18] = target: C-X-C chemokine receptor type 4 (Homo sapiens, UniProt P61073, A175F); test: (§9) Antagonist activity at human CXCR4 A175F mutant expressed in COS7 cells coexpressing G protein Gqi4myr assessed as inhibition of CXCL12-induced phosphatidylinositol turnover; format: functional, cell-based, COS-7
[19] = tested on: C-X-C chemokine receptor type 4 (Homo sapiens), P61073 [A175F]; test: as §9; format: functional, cell-based; conditions: COS-7
[20] = target: C-X-C chemokine receptor type 4 (Homo sapiens, UniProt P61073, Q200W); test: (§10) Antagonist activity at human CXCR4 Q200W mutant expressed in COS7 cells coexpressing G protein Gqi4myr assessed as inhibition of CXCL12-induced phosphatidylinositol turnover; format: functional, cell-based, COS-7
[21] = tested on: C-X-C chemokine receptor type 4 (Homo sapiens), P61073 [Q200W]; test: as §10; format: functional, cell-based; conditions: COS-7
[22] = target: C-X-C chemokine receptor type 4 (Homo sapiens, UniProt P61073, I259A); test: (§11) Antagonist activity at transmembrane domain 6 of human CXCR4 I259A mutant expressed in COS7 cells coexpressing G protein Gqi4myr assessed as inhibition of CXCL12-induced phosphatidylinositol turnover; format: functional, cell-based, COS-7
[23] = tested on: C-X-C chemokine receptor type 4 (Homo sapiens), P61073 [I259A]; test: as §11; format: functional, cell-based; conditions: COS-7
[24] = target: C-X-C chemokine receptor type 4 (Homo sapiens, UniProt P61073, D262N); test: (§12) Antagonist activity at human CXCR4 D262N mutant expressed in COS7 cells coexpressing G protein Gqi4myr assessed as inhibition of CXCL12-induced phosphatidylinositol turnover; format: functional, cell-based, COS-7
[25] = tested on: C-X-C chemokine receptor type 4 (Homo sapiens), P61073 [D262N]; test: as §12; format: functional, cell-based; conditions: COS-7
[26] = tested on: C-X-C chemokine receptor type 4 (Homo sapiens), P61073 [I284A]; test: (§13) Antagonist activity at human CXCR4 I284A mutant expressed in COS7 cells coexpressing G protein Gqi4myr assessed as inhibition of CXCL12-induced phosphatidylinositol turnover; format: functional, cell-based; conditions: COS-7
[27] = target: C-X-C chemokine receptor type 4 (Homo sapiens, UniProt P61073, I284A); test: as §13; format: functional, cell-based, COS-7
[28] = tested on: C-X-C chemokine receptor type 4 (Homo sapiens), P61073 [L120F]; test: (§14) Antagonist activity at human CXCR4 L120F mutant expressed in COS7 cells coexpressing G protein Gqi4myr assessed as inhibition of CXCL12-induced phosphatidylinositol turnover; format: functional, cell-based; conditions: COS-7
[29] = target: C-X-C chemokine receptor type 4 (Homo sapiens, UniProt P61073, L120F); test: as §14; format: functional, cell-based, COS-7
[30] = tested on: C-X-C chemokine receptor type 4 (Homo sapiens), P61073 [H281A]; test: (§15) Antagonist activity at human CXCR4 H281A mutant expressed in COS7 cells coexpressing G protein Gqi4myr assessed as inhibition of CXCL12-induced phosphatidylinositol turnover; format: functional, cell-based; conditions: COS-7
[31] = target: C-X-C chemokine receptor type 4 (Homo sapiens, UniProt P61073, H281A); test: as §15; format: functional, cell-based, COS-7
[32] = tested on: C-X-C chemokine receptor type 4 (Homo sapiens), P61073 [V196A]; test: (§16) Antagonist activity at human CXCR4 V196A mutant expressed in COS7 cells coexpressing G protein Gqi4myr assessed as inhibition of CXCL12-induced phosphatidylinositol turnover; format: functional, cell-based; conditions: COS-7
[33] = target: C-X-C chemokine receptor type 4 (Homo sapiens, UniProt P61073, V196A); test: as §16; format: functional, cell-based, COS-7
[34] = target: C-X-C chemokine receptor type 4 (Homo sapiens, UniProt P61073, I259W); test: (§17) Antagonist activity at human CXCR4 I259W mutant expressed in COS7 cells coexpressing G protein Gqi4myr assessed as inhibition of CXCL12-induced phosphatidylinositol turnover; format: functional, cell-based, COS-7
[35] = tested on: C-X-C chemokine receptor type 4 (Homo sapiens), P61073 [I259W]; test: as §17; format: functional, cell-based; conditions: COS-7

Chain of C-X-C chemokine receptor type 4 (Homo sapiens, UniProt P61073) (P61073 whole entry): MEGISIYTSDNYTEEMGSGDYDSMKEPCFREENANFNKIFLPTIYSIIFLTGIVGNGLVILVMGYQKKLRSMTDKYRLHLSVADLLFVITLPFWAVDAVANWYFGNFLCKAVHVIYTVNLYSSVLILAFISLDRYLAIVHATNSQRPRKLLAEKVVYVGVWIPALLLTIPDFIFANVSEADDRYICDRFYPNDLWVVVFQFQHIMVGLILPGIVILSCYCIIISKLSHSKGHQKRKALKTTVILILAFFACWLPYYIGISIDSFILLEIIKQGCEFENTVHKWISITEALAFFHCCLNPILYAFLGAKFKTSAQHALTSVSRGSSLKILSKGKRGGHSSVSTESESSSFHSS
Chain of C-X-C chemokine receptor type 4 (Homo sapiens, UniProt P61073, T287A) (P61073 whole entry T287A): as the sequence (P61073 whole entry) above, with T287A counted along it
Chain of C-X-C chemokine receptor type 4 (Homo sapiens), P61073 [T287A] (P61073 whole entry T287A): as the sequence (P61073 whole entry) above, with T287A counted along it
Chain of C-X-C chemokine receptor type 4 (Homo sapiens, UniProt P61073, D171N) (P61073 whole entry D171N): as the sequence (P61073 whole entry) above, with D171N counted along it
Chain of C-X-C chemokine receptor type 4 (Homo sapiens), P61073 [D171N] (P61073 whole entry D171N): as the sequence (P61073 whole entry) above, with D171N counted along it
Chain of C-X-C chemokine receptor type 4 (Homo sapiens, UniProt P61073, Y255A) (P61073 whole entry Y255A): as the sequence (P61073 whole entry) above, with Y255A counted along it
Chain of C-X-C chemokine receptor type 4 (Homo sapiens), P61073 [Y255A] (P61073 whole entry Y255A): as the sequence (P61073 whole entry) above, with Y255A counted along it
Chain of C-X-C chemokine receptor type 4 (Homo sapiens, UniProt P61073, H281A) (P61073 whole entry H281A): as the sequence (P61073 whole entry) above, with H281A counted along it
Chain of C-X-C chemokine receptor type 4 (Homo sapiens), P61073 [H281A] (P61073 whole entry H281A): as the sequence (P61073 whole entry) above, with H281A counted along it
Chain of C-X-C chemokine receptor type 4 (Homo sapiens, UniProt P61073, Q200W) (P61073 whole entry Q200W): as the sequence (P61073 whole entry) above, with Q200W counted along it
Chain of C-X-C chemokine receptor type 4 (Homo sapiens), P61073 [Q200W] (P61073 whole entry Q200W, the tested form may be a part): as the sequence (P61073 whole entry) above, with Q200W counted along it
Chain of C-X-C chemokine receptor type 4 (Homo sapiens), P61073 [A175F] (P61073 whole entry A175F): as the sequence (P61073 whole entry) above, with A175F counted along it
Chain of C-X-C chemokine receptor type 4 (Homo sapiens, UniProt P61073, A175F) (P61073 whole entry A175F): as the sequence (P61073 whole entry) above, with A175F counted along it

logIC50 [1] | Ki [2] | Ki [3] | logIC50 [4] | Ki [5] | logIC50 [6] | Ki [7] | logIC50 [7] | Ki [8] | logIC50 [9] | Ki [10] | logIC50 [11] | Ki [12] | logIC50 [13] | logIC50 [14] | Ki [15] | Ki [16] | logIC50 [17] | Ki [18] | logIC50 [19] | SMILES | other results
-4.5 | 32 µM | 303 µM | -3.52 | 275 µM | -3.56 | 20 µM | -4.69 | 3.3 µM | -5.49 | 15 µM | -4.82 | 80 µM | -4.1 | -4.43 | 37 µM | 107 µM | -3.97 | 2240 µM | -2.65 | Cc1ccc(CN2CCCNCCNCCCNCC2)cc1 | Ki [20]: 60 µM; logIC50 [21]: -4.22; Ki [22]: 2.5 µM; logIC50 [23]: -5.6; Ki [24]: 2.9 µM; logIC50 [25]: -5.54; logIC50 [26]: -5.64; Ki [27]: 2.3 µM; logIC50 [28]: -4.87; Ki [29]: 13 µM; logIC50 [30]: -4.66; Ki [31]: 22 µM; logIC50 [32]: -4.56; Ki [33]: 28 µM; Ki [34]: 24 µM; logIC50 [35]: -4.62
-5.14 | 7.2 µM | 11 µM | -4.96 | 18 µM | -4.74 | 1.7 µM | -5.76 | 0.34 µM | -6.46 | 0.17 µM | -5.92 | 12 µM | -4.91 | -5.05 | 8.8 µM | 14 µM | -4.85 | 128 µM | -3.89 | c1ccc(CNCc2ccc(CN3CCCNCCNCCCNCC3)cc2)cc1 | Ki [20]: 7.2 µM; logIC50 [21]: -5.14; Ki [22]: 0.91 µM; logIC50 [23]: -6.04; Ki [24]: 2.3 µM; logIC50 [25]: -5.64; logIC50 [26]: -6.38; Ki [27]: 0.42 µM; logIC50 [28]: -6.36; Ki [29]: 0.44 µM; logIC50 [30]: -5.75; Ki [31]: 1.8 µM; logIC50 [32]: -5.88; Ki [33]: 1.3 µM; Ki [34]: 3.1 µM; logIC50 [35]: -5.5
